The values that follow come from PMC2248166, “Quantitative peptide binding motifs for 19 human and mouse MHC class I molecules derived using positional scanning combinatorial peptide libraries” (Immunome Research, 2008).

Where a SMILES comes first, the peptide text is derived from it.

Targets include HLA B*0801 (Homo sapiens, UniProt P01889, A93T/A95T/D138N/E176V/E187T/K202T/Q94N/R180D/S35A/V36M/Y33D/Y91F); HLA A*3001 (Homo sapiens, UniProt P04439, D140H/D185E/E176W/F33S/G80R/H175R/K168Q/R138E/R41S); HLA B*1503 (Homo sapiens, UniProt P01889, A329T/A93T/A95T/C349S/D201E/D98Y/E187L/E204Q/K202T/N87E/Q94N/R155S/R180L/S121R/S35A/V306I/V36M/Y140S/Y91S).
Holding throughout (assay): biochemical
Common to all, as to assay type: binding

Sequence of HLA A*3001 (P04439 25-365 limits assumed, stated change not applied): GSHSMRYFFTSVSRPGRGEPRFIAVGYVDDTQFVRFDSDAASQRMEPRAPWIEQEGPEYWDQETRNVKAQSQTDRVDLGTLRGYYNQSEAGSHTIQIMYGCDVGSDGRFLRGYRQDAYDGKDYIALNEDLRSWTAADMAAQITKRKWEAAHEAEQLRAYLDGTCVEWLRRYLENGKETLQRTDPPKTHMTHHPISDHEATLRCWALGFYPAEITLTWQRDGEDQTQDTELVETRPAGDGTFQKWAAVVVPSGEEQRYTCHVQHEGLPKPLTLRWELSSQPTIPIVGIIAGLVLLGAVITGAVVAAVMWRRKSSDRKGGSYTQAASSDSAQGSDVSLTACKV

As to `CSCC[C@H](N)C(=O)N[C@@H](Cc1ccccc1)C(=O)N[C@@H](CCCNC(=N)N)C(=O)N[C@@H](CCCCN)C(=O)N[C@@H](CCCCN)C(=O)N[C@@H](CCCNC(=N)N)C(=O)N[C@@H](CC(C)C)C(=O)N[C@@H](Cc1ccccc1)C(=O)N[C@@H](CC(C)C)C(=O)O` [3102.0580] (H-MFRKKRLFL-OH), the IC50 against HLA B*0801 was found to be 1.1 nM; against HLA A*3001 it was 10 nM.
In turn, `CC[C@H](C)[C@H](N)C(=O)N[C@@H](CO)C(=O)N[C@@H](CCC(=O)O)C(=O)N[C@@H](CO)C(=O)N[C@@H](CCCNC(=N)N)C(=O)N[C@@H](Cc1ccccc1)C(=O)N[C@@H](CCC(N)=O)C(=O)N[C@@H](CO)C(=O)N[C@@H](CC(C)C)C(=O)O` [3102.0767] (H-ISESRFQSL-OH) registered an IC50 against HLA B*0801 of 40 nM.
Still for that read-out and setting: the result for `CC[C@H](C)[C@H](NC(=O)[C@H](CCCCN)NC(=O)[C@H](Cc1c[nH]cn1)NC(=O)[C@H](CCCCN)NC(=O)[C@@H](NC(=O)[C@H](CCCCN)NC(=O)[C@H](CO)NC(=O)[C@@H](N)CCSC)[C@@H](C)CC)C(=O)N[C@@H](Cc1ccccc1)C(=O)O` [3102.0769] (H-MSKIKHKIF-OH) reads 0.84 nM; that for `CC(C)C[C@H](NC(=O)[C@H](C)NC(=O)[C@H](CO)NC(=O)[C@H](Cc1ccccc1)NC(=O)[C@H](CCCCN)NC(=O)[C@H](CCCNC(=N)N)NC(=O)[C@H](CC(C)C)NC(=O)[C@H](Cc1ccc(O)cc1)NC(=O)[C@@H](N)CO)C(=O)O` [3102.0770] (H-SYLRKFSAL-OH), 6 nM.
For `CC(C)C[C@H](NC(=O)[C@H](Cc1ccccc1)NC(=O)[C@H](CCC(=O)O)NC(=O)[C@H](Cc1ccccc1)NC(=O)[C@H](CCCCN)NC(=O)[C@H](CCCCN)NC(=O)[C@H](CC(C)C)NC(=O)[C@H](CC(C)C)NC(=O)CN)C(=O)O` [3102.0771] (H-GLLKKFEFL-OH), the IC50 on HLA B*0801 stood at 47 nM.
Same read-out and setting: the result for `CC[C@H](C)[C@H](NC(=O)[C@H](CCC(=O)O)NC(=O)[C@H](CCCNC(=N)N)NC(=O)[C@H](CC(C)C)NC(=O)[C@@H](N)CCC(=O)O)C(=O)N[C@@H](Cc1ccccc1)C(=O)N[C@@H](CCCNC(=N)N)C(=O)N[C@@H](CCCNC(=N)N)C(=O)N[C@@H](CC(C)C)C(=O)O` [3102.0772] (H-ELREIFRRL-OH) reads 27 nM.
Still for that read-out and setting: the figure for `CC[C@H](C)[C@H](NC(=O)[C@H](CO)NC(=O)CNC(=O)[C@H](CCCCN)NC(=O)[C@H](CCCNC(=N)N)NC(=O)[C@H](CC(C)C)NC(=O)[C@H](CCCNC(=N)N)NC(=O)[C@H](CCCNC(=N)N)NC(=O)[C@@H](N)Cc1ccccc1)C(=O)O` [3102.0773] (H-FRRLRKGSI-OH) is 3 nM; for `CSCC[C@H](NC(=O)[C@@H](N)CCCNC(=N)N)C(=O)N[C@@H](CCCNC(=N)N)C(=O)N[C@@H](Cc1ccccc1)C(=O)N[C@@H](CCCCN)C(=O)N[C@@H](CCCCN)C(=O)NCC(=O)N[C@@H](C)C(=O)N[C@H](C(=O)O)C(C)C` [3102.0775] (H-RMRFKKGAV-OH) it is 5.4 nM; for `CSCC[C@H](NC(=O)[C@H](C)NC(=O)[C@@H](N)CCSC)C(=O)N[C@@H](Cc1ccccc1)C(=O)N[C@@H](Cc1ccc(O)cc1)C(=O)N[C@@H](C)C(=O)N[C@@H](Cc1c[nH]cn1)C(=O)N[C@@H](C)C(=O)N[C@@H](CC(C)C)C(=O)O` [3102.0776] (H-MAMFYAHAL-OH) it is 1.2 nM.
Still for that read-out and setting: the figure for `CC[C@H](C)[C@H](N)C(=O)N[C@@H](CCSC)C(=O)N[C@@H](CCCNC(=N)N)C(=O)N[C@@H](CCSC)C(=O)N[C@@H](CCCNC(=N)N)C(=O)N[C@@H](Cc1ccccc1)C(=O)N[C@@H](CCCCN)C(=O)N[C@@H](CCCCN)C(=O)NCC(=O)O` [3102.0777] (H-IMRMRFKKG-OH) is 62 nM; for `CC[C@H](C)[C@H](NC(=O)[C@H](CC(N)=O)NC(=O)[C@@H](N)CCCNC(=N)N)C(=O)N[C@@H](C)C(=O)N[C@@H](CCCNC(=N)N)C(=O)N[C@@H](Cc1c[nH]cn1)C(=O)N[C@@H](CC(C)C)C(=O)N[C@@H](C)C(=O)N[C@@H](CC(C)C)C(=O)O` [3102.0780] (H-RNIARHLAL-OH) it is 3.2 nM; for `CC[C@H](C)[C@H](NC(=O)[C@@H](N)Cc1ccccc1)C(=O)N[C@@H](CCCCN)C(=O)N[C@@H](CCC(N)=O)C(=O)NCC(=O)N[C@@H](Cc1ccccc1)C(=O)N[C@@H](CC(N)=O)C(=O)N[C@@H](CC(N)=O)C(=O)N[C@@H](CC(C)C)C(=O)O` [3102.0781] (H-FIKQGFNNL-OH) it is 0.91 nM.
On HLA B*0801, `CC[C@H](C)[C@H](NC(=O)[C@H](CC(C)C)NC(=O)[C@@H](N)CC(N)=O)C(=O)N[C@H](C(=O)N[C@@H](Cc1c[nH]cn1)C(=O)N[C@H](C(=O)N[C@@H](C)C(=O)N[C@@H](C)C(=O)N[C@@H](CC(C)C)C(=O)O)[C@@H](C)O)[C@@H](C)CC` [3102.0785] (H-NLIIHTAAL-OH) registered an IC50 of 1.6 nM.
Turning to `CSCC[C@H](NC(=O)[C@H](CCCNC(=N)N)NC(=O)[C@H](CCCCN)NC(=O)[C@H](CO)NC(=O)[C@H](CCCCN)NC(=O)[C@H](C)NC(=O)[C@@H](N)Cc1ccc(O)cc1)C(=O)N[C@@H](C)C(=O)N[C@@H](CCC(=O)O)C(=O)O` [3102.0786] (H-YAKSKRMAE-OH), it took 31 nM to reach half-maximal inhibition against HLA B*0801 (IC50). Against the preceding compound, the IC50 is about 19-fold higher.
The compound `CC[C@H](C)[C@H](NC(=O)[C@@H](N)CCCNC(=N)N)C(=O)N[C@@H](CC(C)C)C(=O)N[C@@H](Cc1ccccc1)C(=O)N[C@@H](CCCNC(=N)N)C(=O)N[C@@H](CCCCN)C(=O)N1CCC[C@H]1C(=O)N[C@@H](CO)C(=O)N[C@@H](CC(C)C)C(=O)O` [3102.0787] (H-RILFRKPSL-OH) yielded an IC50 on HLA B*0801 of 32 nM.
On to `CC[C@H](C)[C@H](NC(=O)[C@H](Cc1ccccc1)NC(=O)[C@H](CC(C)C)NC(=O)[C@@H](NC(=O)[C@H](CC(C)C)NC(=O)[C@H](Cc1ccccc1)NC(=O)[C@@H]1CCCN1C(=O)[C@@H](NC(=O)[C@@H](N)CC(C)C)[C@@H](C)CC)[C@@H](C)CC)C(=O)O` [3102.0791] (H-LIPFLILFI-OH), for which it took 50 nM to reach half-maximal inhibition against HLA B*0801 (IC50). Compared with the last compound, the IC50 is about 1.6-fold higher.
The same measure, in the same setting: the figure for `CC[C@H](C)[C@H](NC(=O)[C@H](Cc1c[nH]cn1)NC(=O)[C@@H](NC(=O)[C@@H](N)CCSC)C(C)C)C(=O)N[C@@H](Cc1ccc(O)cc1)C(=O)N[C@@H](Cc1ccccc1)C(=O)N[C@H](C(=O)N[C@@H](CO)C(=O)N[C@@H](CC(C)C)C(=O)O)C(C)C` [3102.0878] (H-MVHIYFVSL-OH) is 1.4 nM; for `CC[C@H](C)[C@H](NC(=O)[C@H](Cc1c[nH]cn1)NC(=O)[C@H](CC(N)=O)NC(=O)[C@H](CCCCN)NC(=O)[C@H](CCCNC(=N)N)NC(=O)[C@H](Cc1ccccc1)NC(=O)[C@H](CCCNC(=N)N)NC(=O)[C@@H](NC(=O)[C@@H](N)Cc1ccc(O)cc1)[C@@H](C)CC)C(=O)O` [3102.0888] (H-YIRFRKNHI-OH) it is 1.4 nM; for `CC[C@H](C)[C@H](NC(=O)[C@@H](N)Cc1ccccc1)C(=O)N[C@@H](C)C(=O)N[C@@H](CCCCN)C(=O)N[C@@H](Cc1c[nH]cn1)C(=O)N[C@@H](Cc1ccccc1)C(=O)N[C@@H](CC(C)C)C(=O)N[C@@H](CCC(=O)O)C(=O)N[C@@H](CC(C)C)C(=O)O` [3102.0900] (H-FIAKHFLEL-OH) it is 1.3 nM.
Still for that read-out and setting: the figure for `CC[C@H](C)[C@H](NC(=O)[C@H](Cc1ccccc1)NC(=O)[C@H](CCCCN)NC(=O)[C@@H](NC(=O)[C@@H](N)Cc1ccc(O)cc1)[C@@H](C)CC)C(=O)N[C@@H](Cc1ccccc1)C(=O)N[C@@H](CC(C)C)C(=O)N[C@@H](CCC(N)=O)C(=O)N[C@@H](CCSC)C(=O)O` [3102.0918] (H-YIKFIFLQM-OH) is 8.6 nM; for `CC[C@H](C)[C@H](NC(=O)[C@H](Cc1ccc(O)cc1)NC(=O)[C@H](C)NC(=O)[C@H](Cc1ccccc1)NC(=O)[C@H](Cc1ccc(O)cc1)NC(=O)[C@H](Cc1ccc(O)cc1)NC(=O)[C@H](CCCNC(=N)N)NC(=O)[C@H](CCC(=O)O)NC(=O)CN)C(=O)O` [3102.0936] (H-GERYYFAYI-OH) it is 6.9 nM; for `CC[C@H](C)[C@H](NC(=O)[C@H](CCC(N)=O)NC(=O)[C@H](CCC(=O)O)NC(=O)[C@H](Cc1ccccc1)NC(=O)[C@H](Cc1ccc(O)cc1)NC(=O)[C@H](CC(=O)O)NC(=O)[C@H](CCCNC(=N)N)NC(=O)[C@H](CC(C)C)NC(=O)[C@@H](N)CCC(=O)O)C(=O)O` [3102.0939] (H-ELRDYFEQI-OH) it is 13 nM.
At HLA B*0801, `CC[C@H](C)[C@H](NC(=O)[C@@H](NC(=O)[C@H](CS)NC(=O)[C@@H](NC(=O)[C@H](CCCNC(=N)N)NC(=O)[C@H](CO)NC(=O)[C@H](CCCCN)NC(=O)[C@H](CO)NC(=O)[C@@H](N)CC(N)=O)[C@@H](C)CC)C(C)C)C(=O)O` [3102.0966] (H-NSKSRICVI-OH) displayed an IC50 of 11 nM. This IC50 and that of the compound before are within 1.5-fold of each other.
In turn, `N=C(N)NCCC[C@H](NC(=O)[C@H](Cc1ccc(O)cc1)NC(=O)[C@H](CCCNC(=N)N)NC(=O)[C@H](CCCNC(=N)N)NC(=O)[C@H](CO)NC(=O)[C@@H](N)CO)C(=O)N[C@@H](CS)C(=O)N[C@@H](CO)C(=O)N[C@@H](Cc1ccccc1)C(=O)O` [3102.1158] (H-SSRRYRCSF-OH) had an IC50 on HLA B*0801 of 12 nM.
Regarding `CC[C@H](C)[C@H](N)C(=O)N[C@@H](CC(C)C)C(=O)N[C@@H](Cc1c[nH]cn1)C(=O)N[C@@H](Cc1c[nH]cn1)C(=O)N[C@@H](Cc1c[nH]cn1)C(=O)N[C@@H](CCCNC(=N)N)C(=O)N[C@@H](CC(N)=O)C(=O)N[C@H](C(=O)N[C@@H](Cc1ccccc1)C(=O)O)C(C)C` [3102.1250] (H-ILHHHRNVF-OH), the IC50 on HLA B*0801 turned out to be 13 nM; on HLA B*1503, 1.3 nM.
Turning to `CSCC[C@H](NC(=O)[C@H](CC(=O)O)NC(=O)[C@@H](NC(=O)[C@H](Cc1ccccc1)NC(=O)[C@H](Cc1c[nH]cn1)NC(=O)[C@H](CCSC)NC(=O)[C@H](CO)NC(=O)[C@H](CCC(N)=O)NC(=O)[C@@H](N)Cc1ccccc1)[C@@H](C)O)C(=O)O` [3102.1283] (H-FQSMHFTDM-OH), the values for the IC50 at HLA B*0801 and against HLA B*1503 were 84 nM and 5.1 nM, respectively.

One may read the IC50 as the midpoint of a concentration-inhibition curve. Lower therefore signals greater potency.
